“And” between values parts separate entries of the source, which are not always exact repeats. Identical values can stand only once.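 Grown in 96-well plates, cells were treated for 48 hours with each compound at five concentrations. Insufficient inhibition: endpoint recorded as highest concentration tested. At the GI50, growth is halved. TGI denotes the concentration required for complete inhibition of growth.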
Tests used:
Experiment in all cases: NCI anticancer screen, dose series, 48 h
[1] = system: DU-145 prostate
[2] = system: SNB-19 CNS
[3] = system: HOP-62 NSCLC
[4] = system: HS 578T breast
[5] = system: CCRF-CEM leukemia
[6] = system: RXF 393 renal
[7] = system: UACC-257 melanoma
[8] = system: T-47D breast
[9] = system: EKVX NSCLC
[10] = system: CAKI-1 renal

## CCOC(=O)/C(C#N)=C1\SS/C(=C(/C#N)C(=O)OCC)S1
[1]
  GI50: 18.2 µM
  TGI: 33.6 µM
[2]
  GI50: 35.8 µM
  TGI: > 100 µM
[3]
  GI50: 26.1 µM
  TGI: 86.7 µM
[4]
  GI50: 47.9 µM
  TGI: > 100 µM
[5]
  GI50: 4.62 µM
  TGI: 67.7 µM
[6]
  GI50: 13.3 µM
  TGI: 26.4 µM
[7]
  GI50: 18.3 µM
  TGI: 34.8 µM
[8]
  GI50: 17.9 µM
  TGI: 48.2 µM
[9]
  GI50: 19.6 µM
  TGI: 50.4 µM
[10]
  GI50: 4.38 µM
  TGI: 18.6 µM

## C(=Nc1cnc2ccccc2c1)c1ccc2ccccc2n1
[1]
  TGI: > 100 µM
[2]
  TGI: > 100 µM
[3]
  TGI: > 100 µM
[4]
  TGI: > 100 µM
[5]
  TGI: > 100 µM
[6]
  TGI: > 100 µM
[7]
  TGI: > 100 µM
[8]
  TGI: > 100 µM
[9]
  TGI: > 100 µM
[10]
  TGI: > 100 µM

## O=C(/C=C/C(Cl)(Cl)Cl)Nc1ccc(Cl)cc1
[1]
  TGI: 30.6 µM
[2]
  TGI: 32 µM
[3]
  TGI: 9.95 µM
[4]
  TGI: 54.3 µM
[5]
  TGI: 3.97 µM
[6]
  TGI: 6.62 µM
[7]
  TGI: 35.7 µM
[8]
  TGI: 7.84 µM
[9]
  TGI: 13.7 µM
[10]
  TGI: 2.02 µM

## COc1cc(/C=C/C(=O)N2CCC=CC2=O)cc(OC)c1OC
[1]
  GI50: 4.05 µM
  TGI: 18.6 µM
[2]
  GI50: 5.55 µM
  TGI: 20.6 µM
[3]
  GI50: 6.93 µM
  TGI: 22.2 µM
[4]
  GI50: 5.36 µM
  TGI: 43.6 µM
[5]
  GI50: 2.12 µM
  TGI: 6.29 µM
[6]
  GI50: 1.73 µM
  TGI: 4.07 µM
[7]
  GI50: 2.23 µM
  TGI: 5.37 µM
[8]
  GI50: 2.56 µM
  TGI: 8.51 µM
[9]
  GI50: 2.94 µM
  TGI: 14.2 µM

## O=C(O)c1c(Cl)c(Cl)c(Cl)c(Cl)c1C(=O)Nc1ccc2cn[nH]c2c1
[1]
  TGI: > 100 µM
[2]
  TGI: > 100 µM
[3]
  TGI: > 100 µM
[4]
  TGI: > 100 µM
[6]
  TGI: > 100 µM
[7]
  TGI: > 100 µM
[8]
  TGI: > 100 µM
[9]
  TGI: > 100 µM
[10]
  TGI: > 100 µM

## C/C(=N/O)c1ccc2c(c1)/C(=N/O)c1ccccc1-2
[1]
  GI50: 26.4 µM
  TGI: 71 µM
[2]
  GI50: 33.8 µM
  TGI: > 100 µM
[3]
  GI50: 25 µM
  TGI: 56.4 µM
[4]
  GI50: 29.4 µM
  TGI: 99.2 µM
[5]
  GI50: 25.4 µM
  TGI: 62.6 µM
[6]
  GI50: 21.3 µM
  TGI: 44.8 µM
[7]
  GI50: 29.4 µM
  TGI: 65.5 µM
[8]
  GI50: 24 µM
  TGI: 52.7 µM
[9]
  GI50: 21.2 µM
  TGI: 66.1 µM
[10]
  GI50: 20.3 µM
  TGI: 44.8 µM

## O=C1c2ccccc2C(=O)c2c1ccc1c(=O)n(-c3ccccc3C(F)(F)F)nnc21
[1]
  GI50: 3.19 µM
  TGI: > 100 µM
[2]
  GI50: 2.68 µM
  TGI: 31.2 µM
[3]
  GI50: 1.28 µM
  TGI: 19.1 µM
[4]
  GI50: 3.04 µM
  TGI: > 100 µM
[5]
  GI50: 2.03 µM
  TGI: > 100 µM
[6]
  GI50: 2.15 µM
  TGI: 4.87 µM
[7]
  GI50: 1.71 µM
  TGI: 3.51 µM
[8]
  GI50: 1.86 µM
  TGI: 6.98 µM
[9]
  GI50: 2.36 µM
  TGI: 6.43 µM
[10]
  GI50: 2.77 µM
  TGI: > 100 µM

## O=c1ccc(=O)n(-c2ccccc2)[nH]1
[1]
  TGI: > 100 µM
[2]
  TGI: > 100 µM
[3]
  TGI: > 100 µM
[4]
  TGI: > 100 µM
[5]
  TGI: > 100 µM
[6]
  TGI: > 100 µM
[7]
  TGI: > 100 µM
[8]
  TGI: > 100 µM
[9]
  TGI: > 100 µM
[10]
  TGI: > 100 µM

## COc1c(O)cc2c(c1O)C(=O)C1=C(CCCC1)C2=O
[1]
  TGI: 74.3 µM
[2]
  TGI: 96.9 µM
[3]
  TGI: > 100 µM
[4]
  TGI: 97.1 µM
[5]
  TGI: 10.9 µM
[6]
  TGI: 45 µM
[7]
  TGI: 81.2 µM
[8]
  TGI: 50.2 µM
[9]
  TGI: 86.6 µM
[10]
  TGI: 71 µM

## Cc1nc(-c2cnc(NC(C)C)n(C)c2=O)ccc1Oc1ccnc(-c2cnn(C)c2)c1
[1]
  GI50: 33.2 µM
  TGI: > 100 µM
[2]
  GI50: 25.2 µM
  TGI: > 100 µM
[3]
  GI50: 12.7 µM
  TGI: > 100 µM
[4]
  GI50: 12.2 µM
  TGI: 67.6 µM
[5]
  GI50: 12.1 µM
  TGI: > 100 µM
[6]
  GI50: 10.7 µM
  TGI: 44 µM
[7]
  GI50: 12 µM
  TGI: 55.1 µM
[8]
  GI50: 7.39 µM
  TGI: 99.7 µM
[9]
  GI50: 10.4 µM
  TGI: 99.7 µM
[10]
  GI50: 7.51 µM
  TGI: 65.2 µM

## Cc1ccc(-c2nc(N3CCNCC3)c3oc(-c4ccccc4)nc3n2)cc1
[1]
  GI50: 1.74 µM
  TGI: 3.19 µM
[2]
  GI50: 1.85 µM
  TGI: 3.29 µM
[3]
  GI50: 1.96 µM
  TGI: 4.48 µM
[4]
  GI50: 2.53 µM
  TGI: 7.69 µM
[5]
  GI50: 2.16 µM
  TGI: 4.79 µM
[6]
  GI50: 1.7 µM
  TGI: 3.19 µM
[7]
  GI50: > 100 µM
  TGI: > 100 µM
[8]
  GI50: 1.81 µM
  TGI: 3.83 µM
[9]
  GI50: 3.94 µM
  TGI: > 100 µM
[10]
  GI50: 1.73 µM
  TGI: 3.26 µM

## COc1cc(/C=C/C(=O)/C=C/c2cc3ccc(Cl)cc3n(Cc3ccccc3)c2=O)ccc1O
[1]
  GI50: 1.87 µM
  TGI: 5.47 µM
[2]
  GI50: 1.73 µM
  TGI: 3.88 µM
[3]
  GI50: 2.75 µM
  TGI: 7.08 µM
[4]
  GI50: 3.79 µM
  TGI: 62 µM
[5]
  GI50: 1.4 µM
  TGI: > 100 µM
[6]
  GI50: 1.8 µM
  TGI: 3.34 µM
[7]
  GI50: 2.06 µM
  TGI: 4.83 µM
[8]
  GI50: 2.02 µM
  TGI: 11.5 µM
[9]
  GI50: 2.11 µM
  TGI: 4.67 µM
[10]
  GI50: 2.08 µM
  TGI: 4.54 µM

## COc1ccc2nc3cc([N+](=O)[O-])ccc3c(NNc3ccccc3)c2c1
[1]
  GI50: 19.7 µM
  TGI: 77.8 µM and > 100 µM
[2]
  GI50: 18.2 µM
  TGI: 57.1 µM and > 100 µM
[3]
  GI50: 13.1 µM
  TGI: 29.7 µM and > 100 µM
[4]
  TGI: > 100 µM
[5]
  GI50: 10.9 µM
  TGI: > 100 µM
[6]
  GI50: 11.8 µM
  TGI: 27.6 µM and > 100 µM
[7]
  GI50: 17.3 µM
  TGI: 51.5 µM and > 100 µM
[8]
  GI50: 10.1 µM
  TGI: 35.7 µM and > 100 µM
[9]
  TGI: > 100 µM and 71.8 µM
[10]
  TGI: 35.1 µM and > 100 µM

## C/C(=N\n1c(O)c(C#N)cc(C#N)c1=O)c1ccncc1
[1]
  GI50: > 100 µM
  TGI: > 100 µM
[2]
  GI50: > 100 µM
  TGI: > 100 µM
[3]
  GI50: > 100 µM
  TGI: > 100 µM
[4]
  GI50: > 100 µM
  TGI: > 100 µM
[5]
  GI50: > 100 µM
  TGI: > 100 µM
[7]
  GI50: > 100 µM
  TGI: > 100 µM
[8]
  GI50: > 100 µM
  TGI: > 100 µM
[9]
  GI50: > 100 µM
  TGI: > 100 µM
[10]
  GI50: > 100 µM
  TGI: > 100 µM

## CN(C)C=NC1CCC(C(C)(C)C)CC1 (stereo unspecified)
[1]
  TGI: 61.3 µM
[2]
  TGI: 39.9 µM
[3]
  TGI: 32.3 µM
[4]
  TGI: 42 µM
[6]
  TGI: 45.6 µM
[7]
  TGI: 29.1 µM
[8]
  TGI: 37.5 µM
[9]
  TGI: 59.8 µM
[10]
  TGI: 33.1 µM
